{"source": "patent US12594293B2", "about": "“Use of 6-thio-dG to treat therapy-resistant telomerasepositive pediatric brain tumors” (The Board of Regents of The University of Texas System, priority 2018, dated 2026)", "format_in_all_cases": "cell-based, human", "key": {"HFF+hTERT cells": {"test_system": "HFF+hTERT cells", "test": "Apoptosis, cleaved caspase-3 (IF / immunoblot)", "settings": "3 μM for 4 or 7 days", "experimental": "(§1) Immunofluorescence and telomere FISH assay. Cells were fixed with 4% paraformaldehyde (PFA) for 15 minutes. Cells were then washed, permeabilized with 0.5% Triton-X-100 in PBS, blocked with 5% donkey serum and 0.3% Triton X-100 in TBS and incubated with primary antibodies against γH2A.X (1:500, rabbit), or cleaved caspase-3 (1:400, rabbit) (Cell Signaling); and/or TRF2 (1:200) (Mouse; NOVUS), as applicable, for overnight followed by TBST wash (×3) next day. Corresponding secondary antibodies were added (Alexa-Fluor 488- or 594-conjugated donkey anti-rabbit, or anti-mouse (1:500) (Jackson ImmunoResearch) for 1 hour and washed with TBS (×3) before mounting. For telomere-FISH, fixed and permeabilized cells were dehydrated with a graded ethanol concentration series, air-dried and covered with hybridization solution (70% formamide, 0.5% Blocking Reagent (Roche Diagnostics) diluted in 100 mM maleic acid and 150 mM sodium chloride, and 10 mM Tris (pH 7.5)) with 300 ng/mL PNA(CCCTAA)3-Cy3 (SEQ ID NO: 1) (Biosynthesis, USA), and denatured for 6 minutes at 84° C. followed by hybridization for at least two hours at room temperature. Cells were washed three times with 70% formamide and 10 mM Tris (pH 7.5) and three times with TBS. Finally, they were embedded with mounting media with DAPI (Vector Laboratories H1200).\n(§2) Western blot. Western blot was performed as described previously (22). Antibodies used were against ATMS1981P (R & D Systems); ATM (SIGMA); ATR-T1989P (GeneTex); and ATR, CHK1-S345P, CHK1, CHK2-T68P, CHK2, Cleaved Caspase-3, and β-actin (Cell Signaling). Bands were visualized using ECL with Azurec500 imaging system (Azure Biosystems). Band intensities were quantified using ImageJ software (Ver. 1.49u, NIH, USA)."}, "HFF cells": {"test_system": "HFF cells", "test": "Apoptosis, cleaved caspase-3 (IF / immunoblot)", "settings": "3 μM for 4 or 7 days", "experimental": "as §1, §2"}, "HeLa cells": {"test_system": "HeLa cells", "test": "Apoptosis, cleaved caspase-3 (IF / immunoblot)", "settings": "3 μM for 4 or 7 days", "experimental": "as §1, §2"}, "D-458": {"test_system": "D-458", "test": "Cell growth assay (viable cell count, trypan blue exclusion)", "experimental": "(§3) Cell growth and sphere formation assay. After dissociating primary neurospheres by TrypLE express (Gibco), single cells were seeded in respective growth media in 6-well plates and were incubated for one week at varying concentrations (0.5 to 10 μM) of 6-thio-dG or DMSO. Fresh culture media were added every three days. Viable cell numbers were determined by trypan blue exclusion method. For sphere formation assay, MB004 single cells were seeded in limited dilution (10 cells/well in 96-well plate) and treated with DMSO or 6-thio-dG. Sphere formation was monitored by microscopy."}, "HFF": {"test_system": "HFF", "test": "Cell growth assay (viable cell count, trypan blue exclusion)", "experimental": "as §3"}, "MB004": {"test_system": "MB004", "test": "Cell growth assay (viable cell count, trypan blue exclusion)", "experimental": "as §3"}, "D-425": {"test_system": "D-425", "test": "Cell growth assay (viable cell count, trypan blue exclusion)", "experimental": "as §3"}, "SaOS2": {"test_system": "SaOS2", "test": "Cell growth assay (viable cell count, trypan blue exclusion)", "experimental": "as §3"}, "[1]": {"test_system": "ATM and ATR signaling pathways in HFF cells", "test": "Western blot of ATR-T1989 and ATM-S1981 phosphorylation", "settings": "3 μM, day 1 to 3", "experimental": "as §2"}, "[2]": {"test_system": "ATM and ATR signaling pathways in HFF+hTERT cells", "test": "Western blot of ATR-T1989 and ATM-S1981 phosphorylation", "settings": "3 μM, day 1 to 3", "experimental": "as §2"}}, "data": [{"smiles": "Nc1nc2c(ncn2[C@H]2C[C@H](O)[C@@H](CO)O2)c(=S)[nH]1", "note": "[6-thio-dG, 6-thio-2′-deoxyguanosine]", "values": [{"measurement": "apoptosis (cleaved caspase-3)", "setting": "HFF+hTERT cells", "value": "did not show any evidence of apoptosis"}, {"measurement": "apoptosis (cleaved caspase-3)", "setting": "HFF cells", "value": "did not show any evidence of apoptosis"}, {"measurement": "cleaved caspase-3 signal (apoptosis)", "setting": "HeLa cells", "value": "increase in cleaved caspase-3 signal"}, {"measurement": "cell growth", "setting": "D-458; 0.5-10 μM for one week, cells at recurrence", "value": "effectively inhibited cell growth"}, {"measurement": "IC50", "setting": "D-458; Homo sapiens, 168 h, 6-thio-dG treatment for 7 days, D-458 (recurrence)", "value": 1450, "unit": "nM"}, {"measurement": "IC50", "setting": "HFF; Homo sapiens, 168 h, 6-thio-dG treatment for 7 days, HFF (telomerase-negative)", "value": 7900, "unit": "nM"}, {"measurement": "cell growth", "setting": "HFF; up to 3 μM, one week", "value": "minor to no effect"}, {"measurement": "relative growth", "setting": "MB004; 3 μM 2 days, then 3 days continuous or discontinuous treatment", "value": "robust growth inhibition"}, {"measurement": "IC50", "setting": "MB004; Homo sapiens, 168 h, 6-thio-dG treatment for 7 days, MB004", "value": 436, "unit": "nM"}, {"measurement": "cell growth", "setting": "D-425; 0.5-10 μM for one week, cells at diagnosis", "value": "effectively inhibited cell growth"}, {"measurement": "IC50", "setting": "D-425; Homo sapiens, 168 h, 6-thio-dG treatment for 7 days, D-425 (primary)", "value": 1380, "unit": "nM"}, {"measurement": "IC50", "setting": "SaOS2; Homo sapiens, SAOS-2, 168 h, 6-thio-dG treatment for 7 days, SaOS2 (telomerase-negative, ALT-positive)", "value": 7580, "unit": "nM"}, {"measurement": "cell growth", "setting": "SaOS2; up to 3 μM, one week", "value": "minor to no effect"}, {"measurement": "ATR / ATM pathway activation", "setting": "[1]", "value": "activation of the ATR pathway"}, {"measurement": "ATR-T1989 and ATM-S1981 phosphorylation", "setting": "[2]", "value": "Both ATM and ATR signaling pathways were engaged"}]}]}
